# System: MDA-MB-231
# Assay: Cytotoxicity against human MDA-MB-231 cells by MTT method
# Type: functional, cell-based
smiles,measurement,value
C[C@H]1CC[C@H]2[C@H]3CC(=O)[C@H](Cn4c(O)nc5c(O)ncnc54)[C@]31CC2(C)C,IC50,8.87 µg/mL

# Reference: ChEMBL document CHEMBL1141791, “A cytotoxic sesquiterpene alkaloid from the South China Sea gorgonian Subergorgia suberosa” (J Nat Prod, 2005)
